Tested on: ADPKD cells
Test: modified Boyden chamber motility assay
Type: cell-based, human
Conditions: cells treated for 2 days with 10 mM LiCl, migration through 8 μM pores, 1%-5% FBS gradient, fluorescent microplate quantification, compared with NHCT and NHTAL controls
Procedure: To assay for cell motility a number of different assays may be used, including but not limited to, standard migratory assays on slides or using modified Boyden chambers. Such assay systems are described in further detail in a working example of the present specification (See, Example 7).
Using a modified Boyden chamber motility assay human renal epithelial cells and ADPKD cells were plated (5000 cells/membrane) in the upper chamber and allowed to migrate through 8 μM pores for 0-15 hours in response to a 1%-5% FBS gradient. All primary and differentiated conditionally immortalized cell types migrate in a a time-dependent fashion but more normal adult collecting tubule (NHCT) and thick ascending limb (NHTAL) cells appeared in the lower chamber than ADPKD epithelia, 975±10 (NHCT), 1060±(NHTAL) versus 426±20 (ADPKD). The effect of lithium on renal epithelial cell motility was assessed. Calcein-AM (Goldberg, A. Fluorescent Blocking Membrane Enhances Analyses of Cell-Based Assay. Becton Dickinson Techniques Bulletin #429) labeled cells were treated for 2 days±10 mM LICL and then plated onto membranes as described above.

## [Cl-].[Li+] [LiCl, lithium chloride]
  motility of ADPKD cells: significantly increased the motility of ADPKD cells
Listed as Lithium
  motility of ADPKD cells: increases the motility of ADPKD cells to the level observed for NHCT (CT) cells
Listed as lithium
  motility of ADPKD cells: decreased epithelial cell motility can be reversed
Listed as lithium chloride
  motility of ADPKD cells: increase the motility of ADPKD cells to almost normal levels

Reference: patent US6638726B1, “Screening methods for compounds useful in the treatment of polycystic kidney disease” (Mount Sinai School of Medicine of New York University, priority 2000, dated 2003)
